# Experimental data reported in patent US7148245B2, “Biphenyl derivatives substituted with an aromatic or heteroaromatic radical, and pharmaceutical and cosmetic compositions containing them” (Galderma Research & Development, priority 1997, dated 2006).
row,SMILES,melting point [°C]
1,CC1(C)CCSc2cc(-c3cc(-c4ccc(C(=O)O)cc4)ccc3-c3ccccc3)ccc21,261
2,CC1(C)CCC(C)(C)c2cc(-c3cc(-c4ccc(C(=O)O)cc4)ccc3-c3ccccc3)c(O)cc21,273
3,"CC1(C)CCC(C)(C)c2cc(-c3cc(-c4ccc(C(=O)O)cc4)ccc3OCCCCCCCCO)ccc21 [Example 5, 4-[4-(8-Hydroxyoctyloxy)-3-(5,6,7,8-tetrahydro-5,5,8,8-tetramethyl-2-naphthyl)phenyl]benzoic acid]",155 to 160
4,"CC1(C)CCC(C)(C)c2cc(-c3cc(-c4ccc(C(=O)O)cc4)ccc3OCCCCCCCCCO)ccc21 [Example 6, 4-[4-(9-Hydroxynonyloxy)-3-(5,6,7,8-tetrahydro-5,5,8,8-tetramethyl-2-naphthyl)phenyl]benzoic acid]",147 to 150
5,"CC1(C)CCC(C)(C)c2cc(-c3cc(-c4ccc(C(=O)O)cc4)ccc3OCCN3CCOCC3)ccc21 [Example 12, 4′-(2-Morpholin-4-ylethoxy)-3′-(5,5,8,8-tetramethyl-5,6,7,8-tetrahydro-2-naphthyl)biphenyl-4-carboxylic acid]",270 to 272
6,"Cc1cc2c(cc1-c1cc(-c3ccc(C(=O)O)cc3)ccc1-c1ccccc1)C(C)(C)CCC2(C)C [Example 36, 2′-(3,5,5,8,8-Pentamethyl-5,6,7,8-tetrahydro-2-naphthyl)-[1,1′;4′,1″]terphenyl-4″-carboxylic acid]",217
7,"CCCOc1cc2c(cc1-c1cc(-c3ccc(C(=O)O)cc3)ccc1-c1ccccc1)C(C)(C)CCC2(C)C [Example 40, 2′-(3-Propyloxy-5,5,8,8-tetramethyl-5,6,7,8-tetrahydro-2-naphthyl)-[1,1′;4′,1″]terphenyl-4″-carboxylic acid]",234
8,"CC1(C)CCC(C)(C)c2cc(-c3cc(-c4ccc(C(=O)O)cc4O)ccc3-c3ccccc3)ccc21 [Example 42, 2″-Hydroxy-2′-(5,5,8,8-tetramethyl-5,6,7,8-tetrahydro-2-naphthyl)-[1,1′;4′,1″]terphenyl-4″-carboxylic acid]",282 to 284
9,"CC1(C)CCC(C)(C)c2cc(-c3cc(-c4ccc(C(=O)O)c(O)c4)ccc3-c3ccccc3)ccc21 [Example 46, 3″-Hydroxy-2′-(5,5,8,8-tetramethyl-5,6,7,8-tetrahydro-2-naphthyl)-[1,1′;4′,1″]terphenyl-4″-carboxylic acid]",266 to 268
10,"CC1(C)CCC(C)(C)c2cc(-c3cc(-c4ccc(C(=O)O)nc4)ccc3-c3ccccc3)ccc21 [Example 48, 5-[2-(5,5,8,8-Tetramethyl-5,6,7,8-tetrahydro-2-naphthyl)biphenyl-4-yl]-2-pyridinecarboxylic acid]",222 to 224
11,"CC1(C)CCC(C)(C)c2cc(C3C=C(c4ccccc4)C=CC3(OCC(=O)O)C(=O)O)ccc21 (stereo not shown) [Example 54, 4′-Carboxymethoxy-3′-(5,5,8,8-tetramethyl-5,6,7,8-tetrahydro-2-naphthyl)biphenyl-4′-carboxylic acid]",279 to 281
12,"CCOC(=O)CCCCCOc1ccc(-c2ccc(C(=O)O)cc2)cc1-c1ccc2c(c1)C(C)(C)CCC2(C)C [Example 55, 4′-(5-Ethoxycarbonylpentyloxy)-3′-(5,5,8,8-tetramethyl-5,6,7,8-tetrahydro-2-naphthyl)biphenyl-4-carboxylic acid]",177
13,"CC1(C)CCC(C)(C)c2cc(-c3cc(-c4ccc(C(=O)O)cc4)ccc3OCCCCCC(=O)O)ccc21 [Example 56, 4′-(5-Carboxypentyloxy)-3′-(5,5,8,8-tetramethyl-5,6,7,8-tetrahydro-2-naphthyl)biphenyl-4-carboxylic acid]",245

# The next lines start with the values.
row,melting point [°C],SMILES
1,183 to 185,COCOc1ccc(-c2ccc3c(c2)C(C)(C)CCC3(C)C)cc1-c1ccc(C(=O)O)cc1
2,176,COCOc1c(-c2ccc(C(=O)O)cc2)cccc1-c1ccc2c(c1)C(C)(C)CCC2(C)C
3,205,COc1c(-c2ccc(C(=O)O)cc2)cccc1-c1ccc2c(c1)C(C)(C)CCC2(C)C
4,165,COCOCc1cc(-c2ccc(C(=O)O)cc2)cc(-c2ccc3c(c2)C(C)(C)CCC3(C)C)c1
5,213,CC1(C)CCC(C)(C)c2cc(-c3cc(CO)cc(-c4ccc(C(=O)O)cc4)c3)ccc21
6,343,CC1(C)CCC(C)(C)c2cc(-c3cc(-c4ccc(C(=O)O)cc4)ccc3C(=O)O)ccc21
7,258,"CC1(C)CCC(C)(C)c2cc(-c3cc(-c4ccc(C(=O)O)cc4)ccc3OCC(O)CO)ccc21 (racemic) [Example 10, 4′-(2,3-Dihydroxypropoxy)-3′-(5,5,8,8-tetramethyl-5,6,7,8-tetrahydro-2-naphthyl)biphenyl-4-carboxylic acid]"
8,200 to 201,"CC1(C)CCC(C)(C)c2cc(-c3cc(-c4ccc(C(=O)O)cc4)ccc3OCCCCCCO)ccc21 [Example 3, 4-[4-(6-Hydroxyhexyloxy)-3-(5,6,7,8-tetrahydro-5,5,8,8-tetramethyl-2-naphthyl)phenyl]benzoic acid]"
9,168 to 172,"CC1(C)CCC(C)(C)c2cc(-c3cc(-c4ccc(C(=O)O)cc4)ccc3OCCCCCCCO)ccc21 [Example 4, 4-[4-(7-Hydroxyheptyloxy)-3-(5,6,7,8-tetrahydro-5,5,8,8-tetramethyl-2-naphthyl)phenyl]benzoic acid]"
10,241 to 244,"CC1(C)CCC(C)(C)c2cc(-c3cc(-c4ccc(C(=O)O)cc4)ccc3OCc3ccccc3)ccc21 [Example 9, 4-[4-Benzyloxy-3-(5,6,7,8-tetrahydro-5,5,8,8-tetramethyl-2-naphthyl)phenyl]benzoic acid]"
11,287 to 288,"CC1(C)CCC(C)(C)c2cc(-c3cc(-c4ccc(C(=O)O)cc4)ccc3-c3ccccc3)ccc21 [Example 14, 2′-(5,5,8,8-Tetramethyl-5,6,7,8-tetrahydro-2-naphthyl)-[1,1′;4′,1″]terphenyl-4″-carboxylic acid]"
12,212,"COCOc1cccc(-c2ccc(-c3ccc(C(=O)O)cc3)cc2-c2ccc3c(c2)C(C)(C)CCC3(C)C)c1 [Example 18, 3-Methoxymethoxy-2′-(5,5,8,8-tetramethyl-5,6,7,8-tetrahydro-2-naphthyl)-[1,1′;4′,1″]terphenyl-4″-carboxylic acid]"
13,258 to 259,"COc1cccc(-c2ccc(-c3ccc(C(=O)O)cc3)cc2-c2ccc3c(c2)C(C)(C)CCC3(C)C)c1 [Example 20, 3-Methoxy-2′-(5,5,8,8-tetramethyl-5,6,7,8-tetrahydro-2-naphthyl)-[1,1′;4′,1″]terphenyl-4″-carboxylic acid]"
14,218 to 221,"COCOc1ccccc1-c1ccc(-c2ccc(C(=O)O)cc2)cc1-c1ccc2c(c1)C(C)(C)CCC2(C)C [Example 21, 2-Methoxymethoxy-2′-(5,5,8,8-tetramethyl-5,6,7,8-tetrahydro-2-naphthyl)-[1,1′;4′,1″]terphenyl-4″-carboxylic acid]"
15,265 to 269,"CC1(C)CCC(C)(C)c2cc(-c3cc(-c4ccc(C(=O)O)cc4)ccc3-c3ccccc3O)ccc21 [Example 22, 2-hydroxy-2′-(5,5,8,8-tetramethyl-5,6,7,8-tetrahydro-2-naphthyl)-[1,1′;4′,1″]terphenyl-4″-carboxylic acid]"
16,239 to 243,"COc1ccccc1-c1ccc(-c2ccc(C(=O)O)cc2)cc1-c1ccc2c(c1)C(C)(C)CCC2(C)C [Example 23, 2-Methoxy-2′-(5,5,8,8-tetramethyl-5,6,7,8-tetrahydro-2-naphthyl)-[1,1′;4′,1″]terphenyl-4″-carboxylic acid]"
17,258 to 262,"CC1(C)CCC(C)(C)c2cc(-c3ccc(-c4ccccc4)c(-c4ccc(C(=O)O)cc4)c3)ccc21 [Example 28, 4′-(5,5,8,8-Tetramethyl-5,6,7,8-tetrahydro-2-naphthyl)-[1,1′;2′,1″]terphenyl-4″-carboxylic acid]"
18,204 to 206,"COCOc1cc(C(=O)O)ccc1-c1ccc(-c2ccccc2)c(-c2ccc3c(c2)C(C)(C)CCC3(C)C)c1 [Example 43, 2″-Methoxymethoxy-2′-(5,5,8,8-tetramethyl-5,6,7,8-tetrahydro-2-naphthyl)-[1,1′;4′,1″]terphenyl-4″-carboxylic acid]"
